Test results taken from US8853258B2, “C-linked hydroxamic acid derivatives useful as antibacterial agents” (Pfizer Inc., priority 2009, dated 2014).
In brackets after ≈: the same amount, converted by molar mass. Like-named read-outs stand apart in the source and are kept apart here.

Tests used:
[1] = system: Acinetobacter baumanii/haemolyticus: Multidrug-resistant clinical isolate (AB-3167); assay: MIC determination (CLSI), AB-3167; type: cell-based; conditions: for MIC: Acinetobacter baumannii
Procedure, shortened: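 Multidrug-resistant clinical isolate AB-3167 (A. baumannii/haemolyticus) tested for minimum inhibitory concentration following CLSI dilution susceptibility standards M7-A7 and M100-S18.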

[2] = system: Klebsiella pneumoniae: Ciprofloxacin-resistant isolate, ESBL, clinical isolate (KP-3700); assay: MIC determination (CLSI), KP-3700; type: cell-based
Procedure, shortened: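 MIC measured by broth dilution according to CLSI M7-A7 and M100-S18 standards. Test organism was a ciprofloxacin-resistant, ESBL-expressing clinical isolate.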

[3] = system: Pseudomonas aeruginosa UI-18: Wild-type (PA-7); assay: MIC determination (CLSI), PA-7; type: cell-based; conditions: for MIC: Pseudomonas aeruginosa
Procedure, shortened: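 MIC by dilution method per CLSI M7-A7 and M100-S18 guidelines. Strain: wild-type Pseudomonas aeruginosa UI-18.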

[4] = system: Escherichia coli EC-1: VOGEL, mouse virulent; assay: MIC determination (CLSI), EC-1; type: cell-based; conditions: for MIC: Escherichia coli
Procedure, shortened: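 E. coli Vogel, a mouse-virulent strain (EC-1), was tested. MICs were set by dilution susceptibility testing per CLSI standards M7-A7/M100-S18.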

[5] = biological target: Pseudomonas aeruginosa LpxC enzyme (Pseudomonas aeruginosa (strain ATCC 15692 / DSM 22644 / CIP 104116 / JCM 14847 / LMG 12228 / 1C / PRS 101 / PAO1), UniProt P47205); assay: IC50 Assay, LpxC Enzyme from P. aeruginosa (PA LpxC Enzyme IC50); type: biochemical
Description: In order to assess the compounds biological activity, selected in-vitro assays were conducted on selected compounds. One of the assays measured the compounds ability to disrupt the synthesis of lipopolysaccharide, LPS, which is a component of the outer membrane of Gram-negative bacteria. Disruption of this synthesis is lethal to the bacteria. The assay determined the compound's ability to inhibit LpxC, which is the first enzyme in the biosynthetic pathway for LPS (measured as IC50). Additionally, MICs (minimal inhibitory concentrations) were determined for several bacteria. The specific protocols are described below:
A) IC50 Assay, LpxC Enzyme from P. aeruginosa (Labled as PA LpxC Enzyme IC50
At the end of 1 hour, 5 ul of 1N HCl was added to stop the enzyme reaction; the plates were centrifuged, and then processed with the BioTrove Rapidfire HTMS Mass Spectrometry System. A no-enzyme control was used in calculating the IC50 values from the percent conversion values.

[6] = Acinetobacter baumanii/haemolyticus multidrug-resistant clinical isolate AB-3167
[7] = Pseudomonas aeruginosa UI-18 wild-type PA-7
[8] = Escherichia coli EC-1 VOGEL, mouse virulent
[9] = P. aeruginosa LpxC enzyme, read-out: PA LpxC enzyeme IC50
[10] = Acinetobacter baumanii/haemolyticus AB-3167
[11] = Pseudomonas aeruginosa UI-18 (PA-7)

| Compound | AB-3167 MIC [1, 6] | KP-3700 MIC [2] | PA-7 MIC [3, 7] [µg/mL] | EC-1 MIC [4, 8] | other results |
| --- | --- | --- | --- | --- | --- |
| CC(CCc1ccc(-c2ccc(CO)c(F)c2)cc1)(C(=O)NO)S(C)(=O)=O (stereo not drawn) [Example 123] | ≧64 mg/L | 16 µg/mL | 1 | 16 µg/mL | IC50 [5, 9]: 0.491 nM |
| COc1ccc(-c2ccc(CCC(C)(C(=O)NO)S(C)(=O)=O)cn2)c(F)c1 (stereo not drawn) [Example 219] | – | 16 µg/mL | – | – | AB-3167 MIC [1, 10]: ≧64 mg/L; PA-7 MIC [3, 11]: 8 µg/mL; EC-1 MIC ([4]; Escherichia coli EC-1): 4 µg/mL; IC50 [5, 9]: 1.21 nM |
| CC(=O)c1ccc(-c2ccc(CC[C@](C)(C(=O)NO)S(C)(=O)=O)cc2)nc1 [Example 189] | ≧64 mg/L | 16 µg/mL | 4 | 16 µg/mL | IC50 [5, 9]: 0.711 nM |
| Cc1cccc(-c2nc(COc3ccc(CCC(C)(C(=O)NO)S(C)(=O)=O)cc3)c(C)o2)c1 (stereo not drawn) [Example 278, N-hydroxy-2-methyl-4-(4-{[5-methyl-2-(3-methylphenyl)-1,3-oxazol-4-yl]methoxy}phenyl)-2-(methylsulfonyl)butanamide] | – | ≧64 mg/L | – | – | MIC ([1]; Table 3, read-out: AB-3167 MIC): ≥ 64 µg/mL; MIC ([3]; Table 3, read-out: PA-7 MIC): ≥ 64 µg/mL; MIC ([4]; read-out: EC-1 MIC): 32 µg/mL (≈ 67.7 µM); IC50 ([5]; Table 3, read-out: PA LpxC enzyeme IC^50): 10.4 nM |
| C[C@@](CCc1ccc(-c2cccnc2)cc1)(C(=O)NO)S(C)(=O)=O [Example 198] | ≧64 mg/L | ≧64 mg/L | 8 | ≧64 mg/L | IC50 [5, 9]: 3.84 nM |
| CC(CCc1ccc(OCc2cccc(Cl)c2)cc1)(C(=O)NO)S(C)(=O)=O (stereo not drawn) [Example 250, 4-{4-[(3-chlorobenzyl)oxy]phenyl}-N-hydroxy-2-methyl-2-(methylsulfonyl)butanamide] | – | 8 µg/mL | – | – | MIC ([1]; Table 3, read-out: AB-3167 MIC): 4 µg/mL (≈ 9.71 µM); MIC ([3]; Table 3, read-out: PA-7 MIC): 4 µg/mL (≈ 9.71 µM); MIC ([4]; read-out: EC-1 MIC): 2 µg/mL (≈ 4.86 µM) |
| Cc1cccc(-c2ccc(CCC(C)(C(=O)NO)S(C)(=O)=O)cc2)c1 (racemic) [Example 87] | 8 µg/mL | 4 µg/mL | 1 | 2 µg/mL | – |
| CSc1ccccc1-c1ccc(CCC(C)(C(=O)NO)S(C)(=O)=O)cc1 (stereo not drawn) [Example 94] | ≧64 mg/L | ≧64 mg/L | 32 | 32 µg/mL | – |
| CC(CCc1ccc(-c2ccc(C[C@H](N)C(=O)O)cc2)cc1)(C(=O)NO)S(C)(=O)=O (stereo partly drawn) [Example 231] | – | ≧64 mg/L | – | – | AB-3167 MIC [1, 10]: ≧64 mg/L; PA-7 MIC [3, 11]: 16 µg/mL; EC-1 MIC ([4]; Escherichia coli EC-1): 32 µg/mL |
| CC(CCc1ccc(OCc2ccc(C#N)cc2)cc1)(C(=O)NO)S(C)(=O)=O (stereo not drawn) [Example 233, 4-{4-[(4-cyanobenzyl)oxy]phenyl}-N-hydroxy-2-methyl-2-(methylsulfonyl)butanamide] | – | 16 µg/mL | – | – | MIC ([1]; Table 3, read-out: AB-3167 MIC): ≥ 64 µg/mL; MIC ([3]; Table 3, read-out: PA-7 MIC): 4 µg/mL (≈ 9.94 µM); MIC ([4]; read-out: EC-1 MIC): 4 µg/mL (≈ 9.94 µM) |
| CC(CCc1ccc(-c2ccc(C#N)nc2)cc1)(C(=O)NO)S(C)(=O)=O (stereo not drawn) [Example 93] | ≧64 mg/L | 32 µg/mL | 4 | 16 µg/mL | – |
| CC(CCc1ccc(OCCCC2CCCCC2)cc1)(C(=O)NO)S(C)(=O)=O (stereo not drawn) [Example 315, 4-[4-(3-cyclohexylpropoxy)phenyl]-N-hydroxy-2-methyl-2-(methylsulfonyl)butanamide] | – | 16 µg/mL | – | – | MIC ([1]; Table 3, read-out: AB-3167 MIC): 2 µg/mL (≈ 4.86 µM); MIC ([3]; Table 3, read-out: PA-7 MIC): 32 µg/mL (≈ 77.8 µM); MIC ([4]; read-out: EC-1 MIC): 4 µg/mL (≈ 9.72 µM) |
| COc1ccc(-c2ccc(CCC(C)(C(=O)NO)S(C)(=O)=O)cc2)c(C)c1 (racemic) [Example 60] | ≧64 mg/L | 16 µg/mL | 4 | 4 µg/mL | – |
| CC(CCc1ccc(-c2ccccc2)nc1)(C(=O)NO)S(C)(=O)=O (stereo not drawn) [Example 3, N-Hydroxy-2-methyl-2-(methylsulfonyl)-4-(6-phenylpyridin-3-yl)butanamide] | – | ≧64 mg/L | – | – | MIC ([1]; Table 1, MIC, read-out: AB-3167 (MIC)): ≥ 64 µg/mL; MIC ([3]; Table 1, MIC, read-out: PA-7 (MIC)): 16 µg/mL (≈ 45.9 µM); MIC ([4]; read-out: EC-1: (MIC)): 16 µg/mL (≈ 45.9 µM) |
| CC(C)CCCOc1ccc(CCC(C)(C(=O)NO)S(C)(=O)=O)cc1 (stereo not drawn) [Example 267, N-hydroxy-2-methyl-4-{4-[(4-methylpentyl)oxy]phenyl}-2-(methylsulfonyl)butanamide] | – | ≧64 mg/L | – | – | MIC ([1]; Table 3, read-out: AB-3167 MIC): 8 µg/mL (≈ 21.5 µM); MIC ([3]; Table 3, read-out: PA-7 MIC): 16 µg/mL (≈ 43.1 µM); MIC ([4]; read-out: EC-1 MIC): 8 µg/mL (≈ 21.5 µM) |
| CC(CCc1ccc(-c2ccco2)cc1)(C(=O)NO)S(C)(=O)=O (stereo not drawn) [Example 103] | 32 µg/mL | 16 µg/mL | 4 | 8 µg/mL | – |
| Cc1cc(-c2ccc(CCC(C)(C(=O)NO)S(C)(=O)=O)cc2)ccc1O (stereo not drawn) [Example 137] | ≧64 mg/L | 32 µg/mL | 4 | 16 µg/mL | – |
| CC(CCc1ccc(-c2ccc(OCCO)c(F)c2)cc1)(C(=O)NO)S(C)(=O)=O (stereo not drawn) [Example 145] | ≧64 mg/L | 4 µg/mL | 1 | 2 µg/mL | – |
| CC(CCc1ccc(-c2ccc(CN)cc2)cc1)(C(=O)NO)S(C)(=O)=O (stereo not drawn) [Example 111] | ≧64 mg/L | ≧64 mg/L | 32 | ≧64 mg/L | – |
| CC(CCc1ccc(OCCCOCc2ccccc2)cc1)(C(=O)NO)S(C)(=O)=O (stereo not drawn) [Example 243, 4-{4-[3-(benzyloxy)propoxy]phenyl}-N-hydroxy-2-methyl-2-(methylsulfonyl)butanamide] | – | ≧64 mg/L | – | – | MIC ([1]; Table 3, read-out: AB-3167 MIC): 32 µg/mL (≈ 73.5 µM); MIC ([3]; Table 3, read-out: PA-7 MIC): ≥ 64 µg/mL; MIC ([4]; read-out: EC-1 MIC): 32 µg/mL (≈ 73.5 µM) |
| CC(CCc1ccc(OCC2CCC2)cc1)(C(=O)NO)S(C)(=O)=O (stereo not drawn) [Example 266, 4-[4-(cyclobutylmethoxy)phenyl]-N-hydroxy-2-methyl-2-(methylsulfonyl)butanamide] | – | ≧64 mg/L | – | – | MIC ([1]; Table 3, read-out: AB-3167 MIC): 32 µg/mL (≈ 90 µM); MIC ([3]; Table 3, read-out: PA-7 MIC): 16 µg/mL (≈ 45 µM); MIC ([4]; read-out: EC-1 MIC): 32 µg/mL (≈ 90 µM) |
| COC(C)c1ccc(-c2ccc(CCC(C)(C(=O)NO)S(C)(=O)=O)cc2)cc1 (mixture of isomers) [Example 71] | 32 µg/mL | 16 µg/mL | 4 | 4 µg/mL | – |
| CC(CCc1ccc(-c2ccc(C#N)c(F)c2)cc1)(C(=O)NO)S(C)(=O)=O (stereo not drawn) [Example 45] | ≧64 mg/L | 4 µg/mL | 1 | 0.5 µg/mL | – |
| COc1cc(O)ccc1-c1ccc(CCC(C)(C(=O)NO)S(C)(=O)=O)cc1 (stereo not drawn) [Example 141] | ≧64 mg/L | ≧64 mg/L | 32 | ≧64 mg/L | – |
| CC(CCc1ccc(-c2cc(Cl)ccc2F)cc1)(C(=O)NO)S(C)(=O)=O (racemic) [Example 90] | 8 µg/mL | 8 µg/mL | 8 | 8 µg/mL | – |
